A short description of data set [1]: Pharmacokinetic evaluation in rats. The class given is in vivo, male SD rats. Here is the method:
Test substances: the compound of formula (I) was prepared by example 1 of the present invention, and the crystal form I was prepared by example 2 of the present invention.
Administration to Animals and Sample Collection:
the compound of formula (I) for the experiment was dissolved with 2% DMSO+10% PEG400+88% (28% HP-3-CD) physiological saline to prepare a solution; the solution of the test substance was administered to SD rats by gavage at a dose of 5.0 mg/kg; and the blood sampling time points were 15 min, 30 min, 1 h, 2 h, 4 h, 6 h, 8 h and 24 h after administration.
The compound of formula (I) for the experiment was dissolved with 2% DMSO+10% PEG400+88% (28% HP-3-CD) physiological saline to prepare a solution; the solution of the test substance was administered to SD rats by intravenous bolus at a dose of 1 mg/kg; and the blood sampling time points were 5 min, 15 min, 30 min, 1 h, 2 h, 4 h, 6 h, 8 h and 24 h after administration.
The crystal form I for the experiment was dissolved with 5% DMSO+10% PEG400+85% (20% captisol) physiological saline solution to prepare a solution; the solution of the test substance was administered to SD rats by gavage at a dose of 60.0 mg/kg; and the blood sampling time points were 15 min, 30 min, 1 h, 2 h, 4 h, 8 h, 24 h, 30 h and 48 h after administration.
The crystal form I for the experiment was dissolved with 2% DMSO+10% PEG400+88% (28% HP-β-CD) physiological saline to prepare a solution; the solution of the test substance was administered to SD rats by intravenous bolus at a dose of 5 mg/kg; and the blood sampling time points were 5 min, 15 min, 30 min, 1 h, 4 h, 8 h, 12 h and 24 h after administration.
Compound of formula (I): the ordinary SD rats were used and fixed; the tails of the rats were heated in a water bath 10 minutes before each time point; and about 100 μL of blood was collected via a tail vein, and then placed in an anticoagulation tube containing EDTA-K2. The blood sample was centrifuged at 8000 rpm at 4° C. for 6 min to obtain a plasma sample, which was prepared within 30 minutes after blood collection. The plasma was stored in a refrigerator at −80° C. before the test.
Crystal form I: the rats were subjected to jugular vein cannulation (JVC); each time, about 0.35 ml of blood was collected from the rats via a jugular vein cannula into a centrifuge tube containing 5 μl of 15% EDTA-K2; the mixture was gently mixed to obtain a homogeneous mixture, and then the centrifuge tube was placed in an ice bath immediately. Within 1 hour after collecting whole blood, the mixture was centrifuged at 4° C. and 2400×g for 5 minutes, and the supernatant was immediately collected to obtain a plasma sample. The plasma was stored in a refrigerator at −80° C. before the test.
the plasma sample to be tested was taken out from the −80° C. refrigerator, subjected to natural melting at room temperature, and then vortexed for 5 min; […] of the plasma sample was precisely pipetted into a 1.5 mL centrifuge tube; […] of the internal standard working solution (tolbutamide in methanol) at a concentration of 100 ng/mL was added, and the mixture was mixed homogeneously; the homogeneous mixture was vortexed for 5 min, and then centrifuged at 12000 rpm for 5 min; 50 μL of the supernatant was precisely pipetted into a 96-well plate pre-filled with 150 μL of water/well; and the plate was vortexed for 5 min for homogenization, and subjected to LC-MS/MS assay, with a sample loading volume of 5 μL. […]

A short description of data set [2]: Solubility in test solutions at different pHs and water. Type of data set: physicochemical. Particulars: 37° C. Here is the method: Test substances: the compound of formula (I) was prepared by example 1 of the present invention, the crystal form I was prepared by example 2 of the present invention, the crystal form II was prepared by example 16 of the present invention, the crystal form III was prepared by example 20 of the present invention, the crystal form IV was prepared by example 24 of the present invention, the crystal form V was prepared by example 25 of the present invention, the crystal form VI was prepared by example 27 of the present invention, and the crystal form VII was prepared by example 31 of the present invention.
Preparation of Buffered Salt Solutions at Different pHs:
hydrochloric acid solution at pH 1.0:9 ml of hydrochloric acid was pipetted, and water was added for dilution to 1000 ml; the mixture was mixed homogeneously to obtain a hydrochloric acid solution at pH 1.03. Phosphate buffered solution at pH 4.5:1.56 g of sodium dihydrogen phosphate dihydrate was weighed, and 200 ml of water was added to obtain a phosphate buffered solution at pH 4.50. Phosphate buffered solution at pH 6.8:1.56 g of sodium dihydrogen phosphate dihydrate was weighed, and 200 ml of water was added; and the mixture was adjusted to pH 6.80 with 1 mol/L sodium hydroxide solution.
preparation of buffered solutions at different pHs (samples for determining solubility):
50 mg of each test substance was weighed, and 5 ml of the hydrochloric acid solution (pH 1.0) was added; and the mixture was mixed homogeneously with shaking. About 2.5 mg of each test substance was weighed, and 5 ml of the phosphate buffered solution (pH 4.5), 5 ml of the phosphate buffered solution (pH 6.8), and 5 ml of ultrapure water were added, respectively; the mixture was mixed homogeneously with shaking, and then placed in a 37° C. water bath shaker for shaking; the samples were collected at 24 hours and subjected to centrifugation; and the supernatant was taken and directly injected (if the solubility was high, the supernatant was diluted with a 0.1 mol/L hydrochloric acid solution to an appropriate multiple and then injected).
The solubility of the samples was quantitatively calculated according to the single-point external standard method.

A short description of data set [3]: Stability test of different crystal forms. Type of data set: physicochemical. Here is the method:
Test substances: the crystal form I was prepared by example 2 of the present invention, the crystal form II was prepared by example 16 of the present invention, the crystal form III was prepared by example 20 of the present invention, the crystal form IV was prepared by example 24 of the present invention, the crystal form V was prepared by example 25 of the present invention, the crystal form VI was prepared by example 27 of the present invention, and the crystal form VII was prepared by example 31 of the present invention.
Method: the appropriate amount of different test substances were taken, and placed at 105° C. for 3 days, and at 60° C. and RH 92.5% under light for 5 days and 10 days, respectively; and the samples were collected on day 0, day 3, day 5 and day 10 to investigate the changes in the trait and content of the samples.
Table 5 and Table 6 show the results of the trait and content after placement at 105° C. for 3 days. Table 7 and Table 8 show the results of the trait and content after placement at 60° C. and RH 92.5% under light for 5 days. Table 9 and Table 10 show the results of the trait and content after placement at RH 92.5% under light for 10 days.

[4] abbreviates: male SD rats, intravenous bolus 1 mg/kg.
The mark [5] stands for this setting: pH 1.0 hydrochloric acid solution.
Where [6] appears, read: pH 4.5 phosphate buffered solution.
Where [7] appears, read: pH 6.8 phosphate buffered solution.

The record followed here is patent US12234233B2, “Crystal form of phosphodiesterase inhibitor, preparation method therefor and use thereof” (TRANSTHERA SCIENCES (NANJING), INC., priority 2019, dated 2025).

Turning to `CCc1cc2c(N3CCC(C)(OC)CC3)c(C#N)c(=O)[nH]c2cn1` [Compound of formula (I), 6-ethyl-4-(4-methoxy-4-methylpiperidin-1-yl)-2-oxo-1,2-dihydro-1,7-diazanaphthal ene-3-carbonitrile], the Tmax (in general, the time at which the peak concentration occurs) in data set [1] (Sprague-Dawley, rat, plasma, po, male SD rats, gavage 5.0 mg/kg) was found to be 30 min. Further, the pharmacokinetic characteristics result in data set [1] (conclusion from Table 2, rats) is given as “excellent pharmacokinetic characteristics”. For the same molecule, in data set [1] (male SD rats, gavage 5.0 mg/kg), the “AUClast PO/Dose” value is 387.2 h*ng/mL per mg/kg and the “tz1/2 PO” value came to 2.68 h. Moreover, in data set [1] (setting [4]), the “AUClast iv/Dose” value was 748 h*ng/mL per mg/kg, the Cl_obs iv turned out to be 24.2 mL/min/kg, the Vz_obs iv is on record as 2.13 L/kg and the tz1/2 iv was determined as 1.25 h. For the same molecule, the 24-hour solubility in data set [2] (Water) stood at 170 µg/mL. Further, in data set [2] (setting [5]), the 24-hour solubility was determined as 5270 µg/mL. For the same molecule, the 24-hour solubility in data set [2] (setting [6]) came to 160 µg/mL. The same molecule had a 24-hour solubility in data set [2] (setting [7]) of 160 µg/mL.

`CCc1cc2c(N3CCC(C)(OC)CC3)c(C#N)c(=O)[nH]c2cn1` [Crystal form II, 6-ethyl-4-(4-methoxy-4-methylpiperidin-1-yl)-2-oxo-1,2-dihydro-1,7-diazanaphthal ene-3-carbonitrile]: the 24-hour solubility in data set [2] (Water) was 160 µg/mL; in data set [2] (setting [5]), 4540 µg/mL; in data set [2] (setting [6]), 160 µg/mL; in data set [2] (setting [7]) it was 140 µg/mL. Further, the Content in data set [3] (0 day) was 99.8%; in data set [3] (Placed at 105° C. for 3 days), 99.5%; in data set [3] (Placed at RH 92.5% for 10 days), 99.8%; in data set [3] (Placed under light for 10 days), 99.4%. Also, the Trait entry in data set [3] (0 day), in data set [3] (Placed at 105° C. for 3 days), in data set [3] (Placed at RH 92.5% for 10 days) and in data set [3] (Placed under light for 10 days) was “Yellow powder” throughout.

As for `CCc1cc2c(N3CCC(C)(OC)CC3)c(C#N)c(=O)[nH]c2cn1` [Crystal form III, 6-ethyl-4-(4-methoxy-4-methylpiperidin-1-yl)-2-oxo-1,2-dihydro-1,7-diazanaphthal ene-3-carbonitrile], the 24-hour solubility in data set [2] (Water) turned out to be 230 µg/mL; in data set [2] (setting [6]) it was 150 µg/mL; in data set [2] (setting [7]), 120 µg/mL. For the same molecule, the Content was 99.9% in data set [3] (0 day); 99.9% in data set [3] (Placed at 60° C. for 5 days); 99.7% in data set [3] (Placed at 105° C. for 3 days); 99.9% in data set [3] (Placed at RH 92.5% for 5 days); 99.8% in data set [3] (Placed under light for 5 days). Besides, the Trait entry in data set [3] (0 day) and in data set [3] (Placed at 105° C. for 3 days) was “Yellow powder” in each case.

With `CCc1cc2c(N3CCC(C)(OC)CC3)c(C#N)c(=O)[nH]c2cn1` [Crystal form IV, 6-ethyl-4-(4-methoxy-4-methylpiperidin-1-yl)-2-oxo-1,2-dihydro-1,7-diazanaphthal ene-3-carbonitrile], the 24-hour solubility in data set [2] (Water) is 140 µg/mL; in data set [2] (setting [5]), 1640 µg/mL; in data set [2] (setting [6]), 130 µg/mL; in data set [2] (setting [7]), 130 µg/mL. Also, the Content in data set [3] (0 day) was determined as 90.9%; in data set [3] (Placed at RH 92.5% for 10 days), 90.8%; in data set [3] (Placed under light for 10 days), 90.9%. In addition, the Trait entry in data set [3] (0 day), in data set [3] (Placed at RH 92.5% for 10 days) and in data set [3] (Placed under light for 10 days) was “Yellow powder” each time.

Consider `CCc1cc2c(N3CCC(C)(OC)CC3)c(C#N)c(=O)[nH]c2cn1` [Crystal form V, 6-ethyl-4-(4-methoxy-4-methylpiperidin-1-yl)-2-oxo-1,2-dihydro-1,7-diazanaphthal ene-3-carbonitrile], for which the 24-hour solubility in data set [2] (Water) was found to be 330 µg/mL; in data set [2] (setting [5]) it was 4670 µg/mL; in data set [2] (setting [6]), 350 µg/mL; in data set [2] (setting [7]) it was 360 µg/mL. The Content in data set [3] (0 day) worked out at 97.3%; in data set [3] (Placed at RH 92.5% for 10 days), 97.4%; in data set [3] (Placed under light for 10 days), 98.1%. In addition, the Trait result in data set [3] (0 day), in data set [3] (Placed at RH 92.5% for 10 days) and in data set [3] (Placed under light for 10 days) was “Yellow powder” throughout.

Consider `CCc1cc2c(N3CCC(C)(OC)CC3)c(C#N)c(=O)[nH]c2cn1` [Crystal form VI, 6-ethyl-4-(4-methoxy-4-methylpiperidin-1-yl)-2-oxo-1,2-dihydro-1,7-diazanaphthal ene-3-carbonitrile], for which the values for the 24-hour solubility in data set [2] (Water), in data set [2] (setting [6]) and in data set [2] (setting [7]) were 260 µg/mL, 170 µg/mL and 140 µg/mL, respectively. The Content in data set [3] (0 day) was found to be 99.9%; in data set [3] (Placed at 60° C. for 5 days) it was 99.8%; in data set [3] (Placed at 105° C. for 3 days) it was 99.7%; in data set [3] (Placed at RH 92.5% for 5 days), 99.9%; in data set [3] (Placed under light for 5 days) it was 99.6%. Also, the Trait entry in data set [3] (0 day) and in data set [3] (Placed at 105° C. for 3 days) was “Yellow powder” in each case.

As to `CCc1cc2c(N3CCC(C)(OC)CC3)c(C#N)c(=O)[nH]c2cn1` [Crystal form VII, 6-ethyl-4-(4-methoxy-4-methylpiperidin-1-yl)-2-oxo-1,2-dihydro-1,7-diazanaphthal ene-3-carbonitrile], the 24-hour solubility in data set [2] (Water) was 150 µg/mL; in data set [2] (setting [5]) it was 7550 µg/mL; in data set [2] (setting [6]), 140 µg/mL; in data set [2] (setting [7]), 130 µg/mL. Besides, the Content in data set [3] (0 day) is 100.0%; in data set [3] (Placed at 60° C. for 5 days) it was 99.9%; in data set [3] (Placed at RH 92.5% for 5 days), 100.0%; in data set [3] (Placed under light for 5 days) it was 99.6%.
